system: Aβ production in 293 751 SWE and CHO 751 SWE cells (transfected with APP-751 Swedish mutation); experiment: Aβ production inhibition activity in cells (Aβ ELISA of conditioned media, normalized for cytotoxicity by MTT); format: cell-based; details: 5 μg/ml
Method in brief: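 293 and CHO cells stably expressing APP-751 with the Swedish mutation were seeded in 96-well plates and grown overnight at 37° C. They were pretreated with compound for two hours, then given fresh compound-containing media for two more hours. Aβ in the conditioned media was quantified by sandwich ELISA (antibodies 266 and 6C6) and normalized to MTT viability versus drug-free control.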

Structure (SMILES) | inhibition at 5 µg/mL [%]
CC(C)(C)c1ccc(COc2ccc(CN(O)C(=S)NCc3ccccc3)cc2)cc1 [Compound 52] | 22
CCCCCCNC(=S)N(O)Cc1ccc(OCc2ccc(F)c(F)c2)cc1 [Compound 57] | 4
CCCCCCNC(=S)N(O)Cc1ccc(OCc2ccc(CCCC)cc2)cc1 [Compound 63] | 9
CC(C)(C)c1ccc(COc2cccc(CN(O)C(=S)NCc3ccc(Cl)c(Cl)c3)c2)cc1 [Compound 51] | 38

same assay, conditions: 10 μg/ml, % of drug-free control, normalized to MTT

Structure (SMILES) | inhibition at 10 µg/mL [%] | Aβ Production Inhibition Activity, % inhibition at 10 μg/ml [%]
CCC(c1cccc(Oc2ccc(C(C)(C)C)cc2)c1)N(O)C(=S)Nc1cccc(C(F)(F)F)c1Cl (stereo not shown) [Compound 22] | 10 | –
CCCCOc1ccc(COc2cccc(CN(O)C(=S)NCc3ccccc3)c2)cc1 [Compound 66] | 21 | –
CC(C)(C)c1ccc(Oc2ccc(NC(=S)Nc3ccc(Cl)cc3)cc2)cc1 [Compound 191] | 33 | –
O=C(Nc1ccccc1)Nc1nncs1 [Compound 255] | 1 | –
CCN1CCCC(C(=O)Nc2ccc(Cl)c(Cl)c2)C1 (stereo not shown) [Compound 230] | – | 28
COc1ccc(NC(=O)Nc2ccc(Cl)c(Cl)c2)c(OC)c1 [Compound 144] | 41 | –
O=C(Nc1ccc(Cl)c(Cl)c1)Nc1ncccn1 [Compound 138] | 7 | –
CCCCCCNC(=S)N(O)Cc1cccc(S(=O)(=O)c2ccc(C(C)(C)C)cc2)c1 [Compound 93] | – | 13
CCCc1c(NC(=S)Nc2ccc(C(C)(C)C)cc2)ccc(C(=O)c2ccccc2)c1O [Compound 203] | 2 | –
CC(NC(=S)N(O)C(C)c1cccc(Oc2ccc(C(C)(C)C)cc2)c1)c1ccccc1 (stereo not shown) [Compound 13] | 46 | –
Cc1cccc(CNC(=S)N(O)Cc2ccc(-c3ccccc3)cc2)c1 [Compound 79] | 15 | –
Cc1cc(C(=O)Nc2ccc(Cl)c(Cl)c2)no1 [Compound 242] | – | 29
CC(c1cccc(Oc2ccc(C(C)(C)C)cc2)c1)N(O)C(=S)NC(c1ccccc1)c1ccccc1 (stereo not shown) [Compound 14] | 44 | –
CC(C)(C)c1ccc(-c2ccc(CN(O)C(=S)NCc3ccccc3)cc2)cc1 [Compound 81] | 20 | –
Cc1nnc(NC(=O)Nc2c(C)cccc2C)s1 [Compound 251] | -13 | –

same assay, conditions: 2 h pretreatment + 2 h incubation

Structure (SMILES) | IC50 [µM]
CC(C)(C)c1cc(C(=O)Nc2ccc(Cl)c(Cl)c2)on1 [Compound 245] | 9.8
CC(C)(C)c1ccc(Oc2cccc(CNC(=S)NCc3ccccc3)c2)cc1 [Compound 40] | 9.1
CC(C)(C)c1ccc(Oc2cccc(CNC(=S)NCc3ccc(Cl)c(C(F)(F)F)c3)c2)cc1 [Compound 41] | 4
CC(C)(C)c1ccc(Oc2ccc(NC(=S)NCc3ccccn3)cc2)cc1 [Compound 120] | 15.6
COc1c(C(C)(C)C)cc(COc2ccc(CN(O)C(=S)NCc3ccccc3)cc2)cc1C(C)(C)C [Compound 73] | 5.9
CC(C)(C)c1ccc(Oc2cccc(NC(=S)NCc3ccccc3)c2)cc1 [Compound 186] | 9
CC(C)(C)c1ccc(Oc2ccc(NC(=S)NCc3nnc(C(F)(F)F)s3)cc2)cc1 [Compound 134] | 10.2
CCCc1cc(C(C)(C)C)ccc1Oc1ccc(NC(=S)Nc2cccc(C(F)(F)F)c2)cc1 [Compound 195] | 11
CSc1ccc(NC(=O)Nc2cc(Cl)c(Cl)c(Cl)c2)cc1 [Compound 155] | 5.8
CC(C)(C)c1ccc(Oc2ccc(NC(=S)NCc3ccc(F)cc3)cc2)cc1 [Compound 113] | 5.6
CCCCCCNC(=S)N(O)C(C)c1cccc(Oc2ccc(C(C)(C)C)cc2)c1 (stereo not shown) [Compound 19] | 11
CCCCCCNC(=S)NCc1cccc(Oc2ccc(C(C)(C)C)cc2)c1 [Compound 42] | 17.2
CC(C)(C)c1ccc(Oc2ccc(NC(=S)NCc3cccc(C(F)(F)F)c3)cc2)cc1 [Compound 179] | 6.5
O=C(Nc1ccc(Cl)c(Cl)c1)Nc1nc2ccccc2[nH]1 [Compound 140] | 17.4
CCCCCCNC(=S)N(O)Cc1ccc(COc2ccc(C(C)(C)CC)cc2)cc1 [Compound 96] | 24.8
CCCc1c(CSC(=S)NCc2ccccc2)ccc(C(C)=O)c1O [Compound 199] | 2
CC(C)(C)c1ccc(C(=O)Nc2cccc(CN(O)C(=S)NCc3ccccc3)c2)cc1 [Compound 84] | 15
CC(C)(C)c1ccc(Oc2ccc(NC(=S)Nc3cccc(C(F)(F)F)c3)cc2)cc1 [Compound 175] | 7.3
CCC(C)(C)c1ccc(OCc2ccc(CN(O)C(=S)NCc3ccccc3)cc2)cc1 [Compound 97] | 10
FC(F)(F)c1cc(NC(=S)Nc2ccc(Cl)c(C(F)(F)F)c2)ccc1Cl [Compound 166] | 2.8
CC(C)(CCl)c1nnc(NC(=O)Nc2ccc(Cl)c(Cl)c2)s1 [Compound 238, 1-[5-(2-chloro-1,1-dimethylethyl)-1,3,4-thiadiazol-2-yl]-3-(3,4-dichlorophenyl)urea] | 1.4
CCCC(c1cccc(Oc2ccc(C(C)(C)C)cc2)c1)N(O)C(=S)NCc1ccc(Cl)c(Cl)c1 (stereo not shown) [Compound 31] | 10
O=C(Nc1ccc(Cl)c(Cl)c1)Nc1cccc2ncccc12 [Compound 136] | 17.8
CCCCCCNC(=S)N(O)Cc1cccc(Oc2ccc(C(C)(C)C)cc2)c1 [Compound 27] | 9.4

Structure (SMILES) | IC50 [µM]
O=C(Nc1ccc(Cl)c(Cl)c1)Nc1nnc(Br)s1 [Compound 240, 1-(5-bromo-1,3,4-thiadiazol-2-yl)-3-(3,4-dichlorophenyl)urea] | 1.8
CC(C)(C)c1nnc(NC(=O)Nc2ccc(Cl)c(Cl)c2)s1 [Compound 237, 1-(5-t-butyl-1,3,4-thiadiazol-2-yl)-3-(3,4-dichlorophenyl)urea] | 2.9
CC(c1cccc(OCc2ccc(C(C)(C)C)cc2)c1)N(O)C(=S)NCc1ccccc1 (stereo not shown) [Compound 75] | 8.9
Cc1cccc(CNC(=S)N(O)C(C)c2cccc(Oc3ccc(C(C)(C)C)cc3)c2)c1 (stereo not shown) [Compound 6] | 11.1
CC(C)(C)c1ccc(Oc2ccccc2N(O)C(=S)Nc2ccc(Cl)c(C(F)(F)F)c2)cc1 [Compound 171] | 10.8
Cc1ccccc1CNC(=S)N(O)C(C)c1cccc(Oc2ccc(C(C)(C)C)cc2)c1 (stereo not shown) [Compound 5] | 10.3
CC(C)(C)c1ccc(Oc2ccc(NC(=S)NCc3ccc(F)cc3C(F)(F)F)cc2)cc1 [Compound 132] | 8
CC(C)(C)c1ccc(Oc2cccc(CN(O)C(=S)NCc3ccc(Cl)c(Cl)c3)c2)cc1 [Compound 28] | 4.2
CSc1ccc(NC(=O)Nc2ccc(Cl)c(Cl)c2)cc1Br [Compound 150] | 5.2
CCCC(c1cccc(Oc2ccc(C(C)(C)C)cc2)c1)N(O)C(=S)NCc1cccc(C)c1 (stereo not shown) [Compound 32] | 9
O=C(Nc1ccc(Sc2ccc(Cl)c(Cl)c2)cc1)Nc1ccc(Cl)c(Cl)c1 [Compound 145] | 6.2
S=C(Nc1ccc(Cl)cc1)Nc1ccc(Cl)c(Cl)c1 [Compound 139] | 6.6
CSc1ccc(NC(=O)Nc2ccc(Cl)c(Cl)c2)cc1 [Compound 149] | 13.8
CC(C)(C)c1ccc(Oc2ccc(NC(=S)NCCc3ccccn3)cc2)cc1 [Compound 123] | 12.3
CC(C)(C)c1ccc(Oc2cccc(NC(=S)Nc3ccc(Cl)cc3)c2)cc1 [Compound 192] | 8.8
CC(C)(C)c1ccccc1Oc1ccc(NC(=S)Nc2ccccc2C(F)(F)F)cc1 [Compound 190] | 13.8
CCCCCCNC(=S)N(O)C(C)c1cccc(NC(=O)c2ccc(C(C)(C)C)cc2)c1 (stereo not shown) [Compound 98] | 13
CC(C)(C)c1ccc(Oc2ccccc2CN(O)C(=S)NCc2ccccc2)cc1 [Compound 180] | 11.6
CC(C)(C)c1ccc(Oc2ccc(NC(=S)NC3CCCCC3)cc2)cc1 [Compound 119] | 15.2
Cc1ccc(CNC(=S)N(O)C(C)c2cccc(Oc3ccc(C(C)(C)C)cc3)c2)cc1 (stereo not shown) [Compound 7] | 15.6
CC(NC(=S)NCc1ccccc1)c1cccc(Oc2ccc(C(C)(C)C)cc2)c1 (stereo not shown) [Compound 39] | 10.5
O=C(Nc1ccc(Cl)c(Cl)c1)Nc1nnc(Cl)s1 [Compound 232, 1-(5-chloro-1,3,4-thiadiazol-2-yl)-3-(3,4-dichlorophenyl)urea] | 2
Cc1ccc(CNC(=S)N(O)C(C)c2cccc(Oc3ccc(C(C)(C)C)cc3)c2)cc1Cl (stereo not shown) [Compound 8] | 9
CCCC(c1cccc(Oc2ccc(C(C)(C)C)cc2)c1)N(O)C(=S)NCc1cccc(Cl)c1 (stereo not shown) [Compound 30] | 9.1

Source: patent US5814646A, “Inhibitors of amyloid beta-protein production” (Eli Lilly and Company, priority 1995, dated 1998)
